EP0070331A2, “Cephalosporin derivatives, their preparation, compositions containing them, and their use in the treatment of diseases” (F. HOFFMANN-LA ROCHE & CO. Aktiengesellschaft, priority 1981, dated 1983)

Key:
[1] = Blood levels after oral administration in the rat; type: in vivo; settings: Ratte, orale Dosis 20 mg/kg, read-out: Antibiotikumkonzentration im Blut
From the text: ..Die nach oraler Gabe erzielten Blutspiegelwerte ergeben sich gemäss folgendem Vergleich an der Ratte.

Neisseria meningitidis = test: Curative dose (CD50) in infected mice, Neisseria meningitidis; type: in vivo; settings: po, Maus, dose at which 50% of mice survive
From the text: (§1) Die orale antimikrobielle Wirksamkeit der erfindungsgemässen Produkte kann anhand von in vivo-Versuchen an der Maus nachgewiesen werden.

in vivo = settings: mouse, po
Streptococcus pyogenes = test: Curative dose (CD50) in infected mice, Streptococcus pyogenes; type: in vivo; settings: Maus, dose at which 50% of mice survive
Serratia marcescens = test: Curative dose (CD50) in infected mice, Serratia marcescens; type: in vivo; settings: Maus, dose at which 50% of mice survive
From the text: as §1

Escherichia coli = test: Curative dose (CD50) in infected mice, Escherichia coli; type: in vivo; settings: Maus, dose at which 50% of mice survive

SMILES: CO/N=C(\C(=O)N[C@@H]1C(=O)N2C(C(=O)OCOC(=O)C(C)(C)C)=C(CSc3nc(C(=O)OCOC(=O)C(C)(C)C)nn3C)CS[C@H]12)c1csc(N)n1 [Produkt A, Methylen (6R,7R)-7-[2-(2-Amino-4-thiazolyl)-2-[ (Z)-methoxyimino]-acetamido]-3-[[[2-methyl-5-[[(pivaloyloxy)methoxy]carbonyl]-2H-1,2,4-triazol-3-yl]thio]methyl]-8-oxo-5-thia-1-azabicyclo[4.2.0]oct-2-en-2-carboxylat-pivalat]
- concentration at 0.25 h ([1]; after 15 min): 6 µg/mL
- concentration at 0.5 h ([1]; after 30 min): 12 µg/mL
- concentration at 0.75 h ([1]; after 45 min): 12 µg/mL
- concentration at 1 h ([1]; after 60 min): 10 µg/mL
- concentration at 1.5 h ([1]; after 90 min): 8 µg/mL
- concentration at 2.5 h ([1]; after 150 min): 5 µg/mL
- ED50 (Neisseria meningitidis): 0.14 mg/kg
- LD50 at 24 h (in vivo): > 4000 mg/kg
- ED50 (Streptococcus pyogenes; po): 0.95 mg/kg
- ED50 (Serratia marcescens; po): 0.68 mg/kg
- ED50 (Serratia marcescens; sc): 0.05 mg/kg

SMILES: CC1=C(C(=O)O)N2C(=O)[C@@H](NC(=O)[C@H](N)c3ccccc3)[C@H]2SC1 [Cephalexin]
- ED50 (Neisseria meningitidis): 1.2 mg/kg
- ED50 (Streptococcus pyogenes; po): 1.8 mg/kg
- ED50 (Streptococcus pyogenes; sc): 1.2 mg/kg
- ED50 (Serratia marcescens; po): > 50 mg/kg
- ED50 (Serratia marcescens; sc): > 50 mg/kg
- ED50 (Escherichia coli; po): 3.2 mg/kg
- ED50 (Escherichia coli; sc): 2.1 mg/kg
